In patent US20220340983A1, “SYSTEMS AND ASSAYS FOR IDENTIFYING PU.1 INHIBITORS” (Massachustts Institute of Technology, priority 2019, published 2022):
pIC50: −log10 of the molar value. Starred links: 1 amine or outer side, 2 acyl side, 3 side chain; linkers in the order of their positions; H or OH if unused. Positions of bridges follow the written chain, without caps; N, C: chain ends. Non-standard residues stand in square brackets, D forms with d. Residues, ends and D or L forms follow the SMILES beside them. Chains are numbered I, II in the order given. Actinocin(9to1) = Cc1c2oc3c(C)ccc(C(=O)[*:1])c3nc-2c(C(=O)[*:2])c(N)c1=O; NMeV = CN[C@H](C(=O)O)C(C)C; Sar = CNCC(=O)O

Assays:
[1] = tested on: HEK293 CMV-Luciferase cells; test: Cell viability (Hoechst staining) in HEK293 CMV-Luciferase cells; details: for cell viability (Hoechst) (FIG. 2D): HEK293 CMV-Luciferase cell line, 1 μM; for cell viability (Hoechst-staining): HEK293 CMV-Luciferase line, 2-day incubation, actinomycin D, puromycin, 119113 10 μM, DB2313 2.5 μM
Experimental: Assays were conducted for percent luminescence and cell viability (Hoechst-staining) after a 2-day incubation under the following conditions. As negative controls pure DMSO and “mock” conditions (where nothing is added to the cells) were used.

[2] = tested on: PU.1 dependent gene expression; test: RT-qPCR of mRNA levels in BV2 PU.1-Luciferase cells (validation round 3); type: cell-based, mouse; details: 2-day treatment
PU.1 [3] = molecular target: T1, PU.1 (Mus musculus, UniProt P17433); test: Luciferase assay (luminescence) in BV2 PU.1-Luciferase reporter cells; type: cell-based; details: for pIC50: luminescence reduction in BV2 PU.1-Luciferase cells, concentration-response, Hill's equation
T1 construct: endogenous in cells; host or cells: BV2 PU.1-Luciferase (mouse microglial BV2 with a 5xLBB-luciferase reporter integrated at ROSA26)

[4] = tested on: HEK293 CMV-Luciferase cells; test: Luminescence in HEK293 CMV-Luciferase control line (luciferase quencher counter-screen); type: cell-based
Text: The IACS Selleck Known Bioactive library (2,100 compounds) was screened and there 35 hits were identified (˜1.7% hit rate), the Asinex1 library (12,000 compounds) was screened and 60 hits were identified (˜0.5% hit rate), and the ChemDiv6 library (44,000 compounds) was screened and 169 hits were identified (˜0.4% hit rate). The Selleck library contains drugs approved by the United States Food and Drug Administration (FDA) with known intracellular mechanisms of action which will give instant insight into pathways that block PU.1 activity. The Asinex1 and ChemDiv6 libraries contain molecules with unknown biological properties, but with low toxicity, high stability, and a broad structural diversity used to generate structure-activity-relationships (SAR) of the PU.1 inhibitors. SAR is used to design new drug libraries containing only molecules with similar structures as previous hits. In order to obtain the SAR, three rounds of validation were performed. In round 1, false-positive, non-specific luciferase quencher molecules were excluded using the commercially available HEK293 CMV-Luciferase line that constitutively expresses luciferase under the CMV promoter. In round 2, weak (non-significant) hits were eliminated according to degree of PU.1 inhibition in the absence of cell death. In round 3, drugs were selected that reduce PU.1-dependent gene expression with RT-qPCR.

PU.1 [5] = molecular target: T1, PU.1; test: Luciferase assay (luminescence) in BV2 PU.1-Luciferase reporter cells; type: cell-based; details: BV2 PU.1-Luciferase cells, 1 μM
[6] = tested on: BV2 PU.1-Luciferase cells; test: Cell viability (Hoechst staining) in BV2 PU.1-Luciferase cells; type: cell-based, mouse
Experimental: The BV2 PU.1-Luciferase cells (referred to as “cells” from here onward) were plated into a 384-well plate, using an automatic dispenser, 2000 cells per well in 30 μL of media composed of RPMI (Sigma-Aldrich), 10% FBS, 1% PenStrep (50 mg/mL) and 1% G418 (50 mg/mL) was plated. […] For reproducibility, each pin array with 384 compounds was added to 4 plates of cells. The cells and compounds were incubated at 37° C. for a period of time sufficient for the compounds to have an effect on the cells (about 2 days). Subsequently, automatic of 30 μL of BrightGlo (Promega) was dispensed into 2 of the 4 plates, in order to lyse the cells and drive the luminescence reaction whereafter the luminescence intensity was measured by a plate reader (Perkin Elmer EnVision). The two other plates were fixed by automatically dispensing 30 μL of 10% formaldehyde with 2μL Hoechst per 1 mL formaldehyde which were left at room temperature for one hour, followed by plate reading (Acumen (TTPLabTech)). A compound transfer and treatment would be repeated if reproducibility between the luminescence plates and/or the fixed Hoechst plates was lacking. […] Luminescence values used were corrected for crosstalk. Hoechst values were total fluorescence area per well. Determination of a positive hit considered both the reduction of luminescence as well as a possible confounding reduction in cell viability. […]

SMILES | cell viability (Hoechst) (FIG. 2D) [1] | cell viability (Hoechst-staining) [1] | mRNA levels Apoe [2] | mRNA levels IL1β [2] | mRNA levels Lucif. [2] | mRNA levels Spi1 [2] | mRNA levels Trem2 [2] | mRNA levels Tyrobp [2] | percent luminescence (PU.1 [3]; BV2 PU.1-Luciferase line, 2-day incubation, 119113 10 μM, DB2313 2.5 μM) | luminescence (FIG. 2D) ([4]; HEK293 CMV-Luciferase cell line, 1 μM) | percent luminescence ([4]; HEK293 CMV-Luciferase line, 2-day incubation, 119113 10 μM, DB2313 2.5 μM) | luminescence (FIG. 2D) (PU.1 [5]) | cell viability (Hoechst) (FIG. 2D) ([6]; BV2 PU.1-Luciferase cells, 1 μM) | cell viability (Hoechst-staining) ([6]; BV2 PU.1-Luciferase line, 2-day incubation, actinomycin D, puromycin, 119113 10 μM, DB2313 2.5 μM) | pIC50 (PU.1 [3])
CC(C)N=C(N)c1ccc2nc(-c3ccc(OCc4cccc(COc5ccc(-c6nc7ccc(C(N)=NC(C)C)cc7[nH]6)cc5)c4F)cc3)[nH]c2c1 [DB2313, reference compound] | only in the BV2 PU.1-Luciferase line | no effect | 0.600 multiples of 1× | 0.460 multiples of 1× | 0.340 multiples of 1× | 0.820 multiples of 1× | 1.030 multiples of 1× | 1.030 multiples of 1× | reduction in luminescence | only in the BV2 PU.1-Luciferase line | no effect | reduced luminescence | – | – | –
Cc1c2oc3c(C)ccc(C(=O)N[C@@H]4C(=O)N[C@H](C(C)C)C(=O)N5CCC[C@H]5C(=O)N(C)CC(=O)N(C)[C@@H](C(C)C)C(=O)O[C@@H]4C)c3nc-2c(C(=O)N[C@@H]2C(=O)N[C@H](C(C)C)C(=O)N3CCC[C@H]3C(=O)N(C)CC(=O)N(C)[C@@H](C(C)C)C(=O)O[C@@H]2C)c(N)c1=O [Actinomycin D] (I: T[dV]P[Sar][NMeV] / II: T[dV]P[Sar][NMeV]; ester I:1-I:C, II:1-II:C; linker I:N-II:N via Actinocin(9to1)) | toxic | reduced cell viability | – | – | – | – | – | – | – | – | – | – | toxic | reduced cell viability | –
COc1ccc(C[C@H](N)C(=O)N[C@H]2[C@@H](O)[C@H](n3cnc4c(N(C)C)ncnc43)O[C@@H]2CO)cc1 [puromycin] | ineffective | resistant | – | – | – | – | – | – | – | – | – | – | – | – | –
CC(C)c1ccc(C2Sc3ccccc3NC3=C2C(=O)c2ccccc23)cc1 (centres unmarked) [Compound 1B5] | – | – | 0.797 multiples of 1× | 0.843 multiples of 1× | 0.491 multiples of 1× | 0.831 multiples of 1× | 0.775 multiples of 1× | 0.697 multiples of 1× | – | – | – | – | – | – | 5.64
CCCCN(C)C(=O)C1CCCN(c2ncnc3onc(C)c23)C1 (centres unmarked) [Compound 2D5] | – | – | 1.400 multiples of 1× | 0.287 multiples of 1× | 0.359 multiples of 1× | 1.015 multiples of 1× | 1.852 multiples of 1× | 2.257 multiples of 1× | – | – | – | – | – | – | 5.58
